In US10239863B2, “Factor XIa inhibitors” (Merck Sharp & Dohme Corp., priority 2013, dated 2019):
Structures can show the parent of a compound that is named as a salt.

biological target: T1, purified human Factor XIa (Homo sapiens, UniProt P03951); experiment: Factor XIa Assay (hydrolysis of fluorogenic substrate Z-Gly-Pro-Arg-AFC); format: biochemical; conditions: purified human Factor XIa 40 pM; Z-Gly-Pro-Arg-AFC 100 μM; 50 mM HEPES pH 7.4; read-out: Factor XIa Inhibition (IC50 (nM))
T1 construct: Determinations were made using purified human Factor XIa; purchased Sekisui Diagnostics
T1 sequence (P03951 388-625 limits assumed): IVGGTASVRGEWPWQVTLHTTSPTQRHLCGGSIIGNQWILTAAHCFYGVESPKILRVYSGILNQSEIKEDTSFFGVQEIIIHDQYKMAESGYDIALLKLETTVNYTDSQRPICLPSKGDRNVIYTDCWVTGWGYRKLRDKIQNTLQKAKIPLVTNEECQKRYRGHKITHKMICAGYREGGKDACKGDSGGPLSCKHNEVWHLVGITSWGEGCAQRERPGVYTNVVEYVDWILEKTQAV
T1 sequence (P03951 19-387 partner limits assumed): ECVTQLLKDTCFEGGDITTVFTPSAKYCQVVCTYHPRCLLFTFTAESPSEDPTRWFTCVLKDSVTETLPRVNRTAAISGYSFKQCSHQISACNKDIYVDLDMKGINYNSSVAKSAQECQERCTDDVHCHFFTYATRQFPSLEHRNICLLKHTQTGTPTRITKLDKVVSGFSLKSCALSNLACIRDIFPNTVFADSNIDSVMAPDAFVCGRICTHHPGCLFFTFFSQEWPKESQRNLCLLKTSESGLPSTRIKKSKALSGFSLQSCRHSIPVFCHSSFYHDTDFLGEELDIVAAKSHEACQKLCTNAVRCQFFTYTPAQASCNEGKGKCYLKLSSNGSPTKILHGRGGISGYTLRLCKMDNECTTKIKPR
Protocol: The effectiveness of compounds of the present invention as inhibitors of Coagulation Factor XIa can be determined using a relevant purified serine protease, and an appropriate synthetic substrate. The rate of hydrolysis of the chromogenic or fluorogenic substrate by the relevant serine protease was measured both in the absence and presence of compounds of the present invention. Assays were conducted at room temperature or at 37° C. […] A decrease in the rate of fluorescence change in the presence of inhibitor is indicative of enzyme inhibition. Such methods are known to one skilled in the art. […]
Factor XIa determinations were made in 50 mM HEPES buffer at pH 7.4 containing 150 mM NaCl, 5 mM CaCl2, and 0.1% PEG 8000 (polyethylene glycol; JT Baker or Fisher Scientific). Determinations were made using purified human Factor XIa at a final concentration of 40 pM (Sekisui Diagnostics) and the synthetic substrate, Z-Gly-Pro-Arg-AFC, TFA salt (Sigma #C0980) at a concentration of 100 μM.
Times required to achieve equilibration between enzyme and inhibitor were determined in control experiments. Initial velocities of product formation in the absence (Vo) or presence of inhibitor (Vi) were measured. Assuming competitive inhibition, and that unity is negligible compared Km/[S], [I]/e, and [I]/e (where [S], [I], and e respectively represent the total concentrations, of substrate, inhibitor and enzyme), the equilibrium constant (Ki) for dissociation of the inhibitor from the enzyme can be obtained from the dependence of Vo/Vi on [I] shown in the following equation.

Structure (SMILES) | IC50 [nM]
O=C(O)c1ccc(NC(=O)[C@@H]2[C@H](c3ccccc3)C[C@H](OC3CCNCC3)CN2C(=O)/C=C/c2cc(Cl)ccc2-n2cnnn2)cc1 (racemic) [Example 8, 4-(1-((E)-3-(5-Chloro-2-(1H-tetrazol-1-yl)phenyl)acryloyl)-3-phenyl-5-(piperidin-4-yloxy)piperidine-2-carboxamido)benzoic acid] | 4.7
COC(=O)Nc1ccc(-c2c[nH]c(C3C(c4ccc(F)cc4)CC(N4CCC(N)CC4)CN3C(=O)/C=C/c3cc(Cl)ccc3-n3cnnn3)n2)cc1 (single isomer, unassigned) [Example 13, Methyl (4-{2-[4-amino-1′-{(2E)-3-[5-chloro-2-(1H-tetrazol-1-yl)phenyl]prop-2-enoyl}-5′-(4-fluorophenyl)-1,3′-bipiperidin-6′-yl]-1H-imidazol-4-yl}phenyl)-carbamate] | 1.7
O=C(O)c1ccc(NC(=O)C2C(c3ccccc3)CC(N3CCNCC3)CN2C(=O)/C=C/c2cc(Cl)ccc2-n2cnnn2)cc1 (stereo not drawn) [Example 2, 4-{[(1-{(2E)-3-[5-chloro-2-(1H-tetrazol-1-yl)phenyl]prop-2-enoyl}-3-phenyl-5-piperazin-1-ylpiperidin-2-yl)carbonyl]amino}benzoic acid] | 11.4
NC1CCN(C2CC(C3CC3)C(C(=O)Nc3ccc(C(=O)O)cc3)N(C(=O)/C=C/c3cc(Cl)ccc3-n3cnnn3)C2)CC1 (stereo not drawn) [Example 4, 4-{[(4-amino-1′-{(2E)-3-[5-chloro-2-(1H-tetrazol-1-yl)phenyl]prop-2-enoyl}-5′-cyclopropyl-1,3′-bipiperidin-6′-yl)carbonyl]amino}benzoic acid] | 2.2
NC1CCN([C@@H]2C[C@H](c3ccccc3)[C@H](C(=O)Nc3ccc(C(=O)O)cc3)N(C(=O)/C=C/c3cc(Cl)ccc3-n3cnnn3)C2)CC1 [Example 7, 4-({[(3′R,5′R,6′R)-4-amino-1′-{(2E)-3-[5-chloro-2-(1H-tetrazol-1-yl)phenyl]prop-2-enoyl}-5′-phenyl-1,3′-bipiperidin-6′-yl]carbonyl}amino)benzoic acid] | 0.4
N#Cc1ccc(-c2cnc(C3C(c4ccc(F)cc4)CC(N4CCC(N)CC4)CN3C(=O)/C=C/c3c(C(F)(F)F)ccc(Cl)c3F)[nH]2)cc1 (stereo not drawn) [Example 16, 4-{2-[4-amino-1′-{(2E)-3-[3-chloro-2-fluoro-6-(trifluoromethyl)phen-yl]prop-2-enoyl}-5′-(4-fluorophenyl)-1,3′-bipiperidin-6′-yl]-1H-imidazol-5-yl}benzonitrile] | 35.6
N#Cc1ccc(-c2cnc(C3C(c4ccc(F)cc4)CC(N4CCC(N)CC4)CN3C(=O)/C=C/c3c(C(F)(F)F)ccc(Cl)c3F)[nH]2)cc1 (stereo not drawn) [Example 17, 4-{2-[4-amino-1′-{(2E)-3-[3-chloro-2-fluoro-6-(trifluoromethyl)phen-yl]prop-2-enoyl}-5′-(4-fluorophenyl)-1,3′-bipiperidin-6′-yl]-1H-imidazol-5-yl}benzonitrile] | 889
COC(=O)Nc1ccc(-c2cnc(C3C(c4ccc(F)cc4)CC(N4CCC(N)CC4)CN3C(=O)/C=C/c3c(C(F)(F)F)ccc(Cl)c3F)[nH]2)cc1 (stereo not drawn) [Example 19, methyl (4-{2-[4-amino-1′-{(2E)-3-[3-chloro-2-fluoro-6-(trifluorometh-yl)phenyl]prop-2-enoyl}-5′-(4-fluorophenyl)-1,3′-bipiperidin-6′-yl]-1H-imidazol-5-yl}phenyl)carbamate] | 67.8
COC(=O)Nc1ccc(-c2c[nH]c(C3C(c4ccc(F)cc4)CC(N4CCC(N)CC4)CN3C(=O)/C=C/c3c(F)ccc(Cl)c3F)n2)cc1 (stereo not drawn) [Example 21, methyl [4-(2-{4-amino-1′-[(2E)-3-(3-chloro-2,6-difluorophenyl)prop-2-enoyl]-5′-(4-fluorophenyl)-1,3′-bipiperidin-6′-yl}-1H-imidazol-4-yl)phenyl]carbamate] | 407
COC(=O)Nc1ccc(-c2c[nH]c([C@@H]3[C@H](C4CC4)C[C@H](N4CCC(N)CC4)CN3C(=O)/C=C/c3cc(Cl)ccc3-n3cnnn3)n2)cc1 [Example 22, methyl (4-{2-[(3′S,5′S,6′S)-4-amino-1′-{(2E)-3-[5-chloro-2-(1H-tetrazol-1-yl)phenyl]prop-2-enoyl}-5′-cyclopropyl-1,3′-bipiperidin-6′-yl]-1H-imidazol-4-yl}phenyl)carbamate] | 671
C[C@@H]1C[C@H](C2CCNCC2)CN(C(=O)/C=C/c2cc(Cl)ccc2-n2cnnn2)[C@@H]1C(=O)Nc1ccc(C(=O)O)cc1 [Example 24, 4-((3R,5R,6S)-1-((E)-3-(5-chloro-2-(1H-tetrazol-1-yl)phenyl)acryloyl)-5-methyl-[3,4′-bipiperidine]-6-carboxamido)benzoic acid] | 579

Continued by falling IC50, values first:

IC50 [nM] | Structure (SMILES)
656 | COC(=O)Nc1ccc(-c2c[nH]c([C@@H]3[C@H](C4CC4)C[C@H](C4CCNCC4)CN3C(=O)/C=C/c3cc(Cl)ccc3-n3cnnn3)n2)cc1 (single isomer, unassigned) [Example 26]
652 | COC(=O)Nc1ccc(-c2c[nH]c([C@@H]3[C@H](C4CC4)C[C@H](C4CCN(S(C)(=O)=O)CC4)CN3C(=O)/C=C/c3cc(Cl)ccc3-n3cnnn3)n2)cc1 (single isomer, unassigned) [Example 28]
640 | O=C(O)c1ccc(NC(=O)[C@@H]2[C@H](c3ccccc3)C[C@H](C3CCNCC3)CN2C(=O)/C=C/c2cc(Cl)ccc2-n2cnnn2)cc1 (single isomer, unassigned) [Example 23, trifluoroacetic acid salt]
306 | O=C(O)c1ccc(NC(=O)[C@H]2[C@@H](c3ccccc3)C[C@@H](OC3CCNCC3)CN2C(=O)/C=C/c2cc(Cl)ccc2-n2cnnn2)cc1 [Example 10, 4-((2R,3R,5R)-1-((E)-3-(5-chloro-2-(1H-tetrazol-1-yl)phenyl)acryloyl)-3-phenyl-5-(piperidin-4-yloxy)piperidine-2-carboxamido)benzoic acid]
155 | O=C(O)c1ccc(NC(=O)[C@@H]2[C@H](OC3CCNCC3)C[C@H](c3ccccc3)CN2C(=O)/C=C/c2cc(Cl)ccc2-n2cnnn2)cc1 (racemic) [Example 12, 4-(1-((E)-3-(5-chloro-2-(1H-tetrazol-1-yl)phenyl)acryloyl)-5-phenyl-3-(piperidin-4-yloxy)piperidine-2-carboxamido)benzoic acid]
139 | NC1CCN(C2CC(c3ccc(F)cc3)C(c3nc(-c4cccnc4)c[nH]3)N(C(=O)/C=C/c3cc(Cl)ccc3-n3cnnn3)C2)CC1 (stereo not drawn) [Example 14, 1′-{(2E)-3-[5-chloro-2-(1H-tetrazol-1-yl)phenyl]prop-2-enoyl}-5′-(4-fluorophenyl)-6′-(4-pyridin-3-yl-1H-imidazol-2-yl)-1,3′-bipiperidin-4-amine]
128 | COC(=O)Nc1ccc(-c2cnc(C3C(c4ccc(F)cc4)CC(N4CCC(N)CC4)CN3C(=O)/C=C/c3c(C(F)(F)F)ccc(Cl)c3F)[nH]2)cc1 (stereo not drawn) [Example 20, methyl (4-{2-[4-amino-1′-{(2E)-3-[3-chloro-2-fluoro-6-(trifluoromethyl)phenyl]prop-2-enoyl}-5′-(4-fluorophenyl)-1,3′-bipiperidin-6′-yl]-1H-imidazol-5-yl}phenyl)carbamate]
105 | CC1CC(N2CCC(N)CC2)CN(C(=O)/C=C/c2cc(Cl)ccc2-n2cnnn2)C1C(=O)Nc1ccc(C(=O)O)cc1 (stereo not drawn) [Example 5, 4-{[(4-amino-1′-{(2E)-3-[5-chloro-2-(1H-tetrazol-1-yl)phenyl]prop-2-enoyl}-5′-methyl-1,3′-bipiperidin-6′-yl)carbonyl]amino}benzoic acid]
82.1 | NC1CCN([C@H]2C[C@@H](c3ccc(F)cc3)[C@@H](c3nc(-c4cccnc4)c[nH]3)N(C(=O)/C=C/c3cc(Cl)ccc3-n3cnnn3)C2)CC1 [Example 15, (3′S,5′S,6′S)-1′-{(2E)-3-[5-chloro-2-(1H-tetrazol-1-yl)phenyl]prop-2-enoyl}-5′-(4-fluorophenyl)-6′-(4-pyridin-3-yl-1H-imidazol-2-yl)-1,3′-bipiperidin-4-amine]
27.2 | CC(C)C1CC(N2CCC(N)CC2)CN(C(=O)/C=C/c2cc(Cl)ccc2-n2cnnn2)C1C(=O)Nc1ccc(C(=O)O)cc1 (stereo not drawn) [Example 3, 4-({[4-amino-1′-{(2E)-3-[5-chloro-2-(1H-tetrazol-1-yl)phenyl]prop-2-enoyl}-5′-(1-methylethyl)-1,3′-bipiperidin-6′-yl]carbonyl}amino)benzoic acid]
16.5 | N#Cc1ccc(-c2cnc(C3C(c4ccc(F)cc4)CC(N4CCC(N)CC4)CN3C(=O)/C=C/c3cc(Cl)ccc3-n3cnnn3)[nH]2)cc1 (stereo not drawn) [Example 18, 4-{2-[4-amino-1′-{(2E)-3-[5-chloro-2-(1H-tetrazol-1-yl)phenyl]prop-2-enoyl}-5′-(4-fluorophenyl)-1,3′-bipiperidin-6′-yl]-1H-imidazol-5-yl}benzonitrile]
6.1 | O=C(O)c1ccc(NC(=O)[C@@H]2[C@H](C3CCCCC3)C[C@H](OC3CCNCC3)CN2C(=O)/C=C/c2cc(Cl)ccc2-n2cnnn2)cc1 (racemic) [Example 11]
2.5 | O=C(O)c1ccc(NC(=O)[C@@H]2[C@H](c3ccccc3)C[C@H](OC3CCNCC3)CN2C(=O)/C=C/c2cc(Cl)ccc2-n2cnnn2)cc1 (single isomer, unassigned) [Example 9]
